Test results taken from patent US11787762B2, “Tetralin and tetrahydroquinoline compounds as inhibitors of HIF-2alpha” (ARCUS BIOSCIENCES, INC., priority 2020, dated 2023).

Molecular target: T1, HIF-2α (Homo sapiens, UniProt Q99814)
T1 construct: host or cells: 786-O cells stably transduced with Cignal Lenti HIF Luc Reporter (only the reporter was introduced, not HIF-2α)
Test: HIF-2α luciferase reporter assay in HIF-Luc-786-O cells
Assay type: cell-based
Settings: Table 3, 20 hours incubation
Method in brief: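 Luminescence (ONE-Glo) read after 20 h compound incubation, top concentration 50 uM, 1% DMSO, 20,000 HIF-Luc-786-O cells per well. Activity scaled between DMSO maximum and no-cell baseline; four-parameter dose-response fits yielded IC50.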

T1 sequence (Q99814 whole entry): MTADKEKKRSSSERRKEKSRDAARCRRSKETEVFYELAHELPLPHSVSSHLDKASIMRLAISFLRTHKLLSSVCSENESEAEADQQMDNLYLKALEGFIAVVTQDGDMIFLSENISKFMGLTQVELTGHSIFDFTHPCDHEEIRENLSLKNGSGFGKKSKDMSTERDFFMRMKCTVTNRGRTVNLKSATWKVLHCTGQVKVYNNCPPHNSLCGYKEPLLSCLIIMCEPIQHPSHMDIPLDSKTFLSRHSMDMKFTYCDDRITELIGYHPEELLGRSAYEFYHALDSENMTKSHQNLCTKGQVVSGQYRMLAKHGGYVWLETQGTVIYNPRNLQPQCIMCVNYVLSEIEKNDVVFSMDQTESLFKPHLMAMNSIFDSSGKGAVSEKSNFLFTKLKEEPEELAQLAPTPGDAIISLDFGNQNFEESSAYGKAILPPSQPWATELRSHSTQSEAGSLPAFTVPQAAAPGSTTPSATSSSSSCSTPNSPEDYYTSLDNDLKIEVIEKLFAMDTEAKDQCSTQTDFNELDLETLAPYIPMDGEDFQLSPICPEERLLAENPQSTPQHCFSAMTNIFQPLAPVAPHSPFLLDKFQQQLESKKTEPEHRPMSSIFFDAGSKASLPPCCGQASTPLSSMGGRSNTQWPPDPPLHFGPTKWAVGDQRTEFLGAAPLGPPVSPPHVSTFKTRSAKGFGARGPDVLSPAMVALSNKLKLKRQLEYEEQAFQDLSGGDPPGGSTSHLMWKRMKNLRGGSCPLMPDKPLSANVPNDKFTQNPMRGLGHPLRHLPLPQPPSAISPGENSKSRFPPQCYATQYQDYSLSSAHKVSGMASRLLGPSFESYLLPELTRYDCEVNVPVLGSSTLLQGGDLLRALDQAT

Molecule `N#Cc1cc(F)cc2c1[C@@H](c1ccc(-c3cncs3)c3c1CC(F)(F)[C@H]3O)CC[C@@H]2F` [Example 158, (5S,8R)-8-[(1S)-2,2-difluoro-1-hydroxy-7-(1,3-thiazol-5-yl)-1,3-dihydroinden-4-yl]-3,5-difluoro-5,6,7,8-tetrahydronaphthalene-1-carbonitrile] has an IC50 of under 0.1 µM.

In the case of `Cc1nc(C)c(-c2ccc([C@H]3CC[C@H](F)c4cc(F)cc(C#N)c43)c3c2[C@H](O)C(F)(F)C3)s1` [Example 193, (5S,8R)-8-[(1S)-7-(2,4-dimethyl-1,3-thiazol-5-yl)-2,2-difluoro-1-hydroxy-1,3-dihydroinden-4-yl]-3,5-difluoro-5,6,7,8-tetrahydronaphthalene-1-carbonitrile], the IC50 is reported as under 0.1 µM.

Work on `Cc1c(-c2ccc([C@H]3CC[C@H](F)c4cc(F)cc(C#N)c43)c3c2[C@H](O)C(F)(F)C3)nnn1C` [Example 183, (5S,8R)-8-[(1S)-7-(1,5-dimethyltriazol-4-yl)-2,2-difluoro-1-hydroxy-1,3-dihydroinden-4-yl]-3,5-difluoro-5,6,7,8-tetrahydronaphthalene-1-carbonitrile] yielded an IC50 of 0.1 to 1 µM.

Work on `N#Cc1cc(F)cc2c1[C@@H](c1ccc(-c3cnc(C(N)=O)s3)c3c1CC(F)(F)[C@H]3O)CC[C@@H]2F` [Example 180, 5-[(3S)-7-[(1R,4S)-8-cyano-4,6-difluoro-1,2,3,4-tetrahydronaphthalen-1-yl]-2,2-difluoro-3-hydroxy-1,3-dihydroinden-4-yl]-1,3-thiazole-2-carboxamide] yielded an IC50 of under 0.1 µM.

`Cc1ncc(-c2c(F)cc([C@H]3CC[C@H](F)c4cc(F)cc(C#N)c43)c3c2[C@H](O)C(F)(F)C3)c(N)n1` [Example 205, (5S,8R)-8-[(1S)-7-(4-amino-2-methylpyrimidin-5-yl)-2,2,6-trifluoro-1-hydroxy-2,3-dihydro-1H-inden-4-yl]-3,5-difluoro-5,6,7,8-tetrahydronaphthalene-1-carbonitrile] showed an IC50 of under 0.1 µM.

Molecule `Cn1nncc1-c1ccc([C@H]2C[C@H](F)[C@H](F)c3cc(F)cc(C#N)c32)c2c1[C@H](O)C(F)(F)C2` [Example 218, (5R,6S,8R)-8-[(1S)-2,2-difluoro-1-hydroxy-7-(1-methyl-1H-1,2,3-triazol-5-yl)-2,3-dihydro-1H-inden-4-yl]-3,5,6-trifluoro-5,6,7,8-tetrahydronaphthalene-1-carbonitrile] has an IC50 of under 0.1 µM.

For `N#Cc1cc(F)cc2c1[C@@H](c1ccc(-c3cccc4ncoc34)c3c1CC(F)(F)[C@H]3O)CC[C@@H]2F` [Example 228, (5S,8R)-8-[(1S)-7-(1,3-benzoxazol-7-yl)-2,2-difluoro-1-hydroxy-1,3-dihydroinden-4-yl]-3,5-difluoro-5,6,7,8-tetrahydronaphthalene-1-carbonitrile], the IC50 was under 0.1 µM.

`N#Cc1cc(F)cc2c1[C@@H](c1ccc(Cl)c3c1C[C@@H](F)[C@H]3O)CC[C@@H]2F` [Example 222, (5S,8R)-8-[(1S,2R)-7-chloro-2-fluoro-1-hydroxy-2,3-dihydro-1H-inden-4-yl]-3,5-difluoro-5,6,7,8-tetrahydronaphthalene-1-carbonitrile] showed an IC50 of under 0.1 µM.

Work on `N#Cc1ccc(-c2c(F)cc([C@H]3CC[C@H](F)c4cc(F)cc(C#N)c43)c3c2[C@H](O)C(F)(F)C3)c(N)c1` [Example 204, (5S,8R)-8-[(1S)-7-(2-amino-4-cyanophenyl)-2,2,6-trifluoro-1-hydroxy-2,3-dihydro-1H-inden-4-yl]-3,5-difluoro-5,6,7,8-tetrahydronaphthalene-1-carbonitrile] yielded an IC50 of under 0.1 µM.

`N#Cc1cc(F)cc2c1[C@@H](c1ccc(-c3cccc(F)c3N)c3c1CC(F)(F)[C@H]3O)CC[C@@H]2F` [Example 229, (5S,8R)-8-[(1S)-7-(2-amino-3-fluorophenyl)-2,2-difluoro-1-hydroxy-1,3-dihydroinden-4-yl]-3,5-difluoro-5,6,7,8-tetrahydronaphthalene-1-carbonitrile] showed an IC50 of under 0.1 µM.

For `N#Cc1cc(F)cc2c1[C@@H](c1ccc(-c3cccc4c3CC(=O)N4)c3c1CC(F)(F)[C@H]3O)CC[C@@H]2F` [Example 164, (5S,8R)-8-[(1S)-2,2-difluoro-1-hydroxy-7-(2-oxo-2,3-dihydro-1H-indol-4-yl)-2,3-dihydro-1H-inden-4-yl]-3,5-difluoro-5,6,7,8-tetrahydronaphthalene-1-carbonitrile], the IC50 was 0.1 to 1 µM.

Molecule `Cc1ncc(-c2ccc([C@H]3CC[C@H](F)c4cc(F)cc(C#N)c43)c3c2[C@H](O)C(F)(F)C3)o1` [Example 148, (5S,8R)-8-[(1S)-2,2-difluoro-1-hydroxy-7-(2-methyl-1,3-oxazol-5-yl)-1,3-dihydroinden-4-yl]-3,5-difluoro-5,6,7,8-tetrahydronaphthalene-1-carbonitrile] has an IC50 of 0.1 to 1 µM.

Work on `N#Cc1cc(F)cc2c1[C@@H](c1ccc(-c3c(N)cccc3F)c3c1CC(F)(F)[C@H]3O)CC[C@@H]2F` [Example 196, (5S,8R)-8-[(1S)-7-(2-amino-6-fluorophenyl)-2,2-difluoro-1-hydroxy-1,3-dihydroinden-4-yl]-3,5-difluoro-5,6,7,8-tetrahydronaphthalene-1-carbonitrile] yielded an IC50 of under 0.1 µM.

`Cn1cncc1-c1c(F)cc([C@H]2C[C@H](F)[C@H](F)c3cc(F)cc(C#N)c32)c2c1[C@H](O)C(F)(F)C2` [Example 208, (5R,6S)-3,5,6-trifluoro-8-[(1S)-2,2,6-trifluoro-1-hydroxy-7-(1-methyl-1H-imidazol-5-yl)-2,3-dihydro-1H-inden-4-yl]-5,6,7,8-tetrahydronaphthalene-1-carbonitrile] showed an IC50 of under 0.1 µM.

For `N#Cc1cc(F)cc2c1[C@@H](c1ccc(-c3ccn[nH]3)c3c1C[C@@H](F)[C@H]3O)CC[C@@H]2F` [Example 172, (5S,8R)-3,5-difluoro-8-[(1S,2R)-2-fluoro-1-hydroxy-7-(1H-pyrazol-5-yl)-2,3-dihydro-1H-inden-4-yl]-5,6,7,8-tetrahydronaphthalene-1-carbonitrile], the IC50 was over 1 µM.

Work on `N#Cc1cc(F)cc2c1[C@@H](c1ccc(-c3cccc4scnc34)c3c1CC(F)(F)[C@H]3O)CC[C@@H]2F` [Example 190, (5S,8R)-8-[(1S)-7-(1,3-benzothiazol-4-yl)-2,2-difluoro-1-hydroxy-1,3-dihydroinden-4-yl]-3,5-difluoro-5,6,7,8-tetrahydronaphthalene-1-carbonitrile] yielded an IC50 of 0.1 to 1 µM.

`N#Cc1cc(F)cc2c1[C@@H](c1ccc(-c3cnncc3N)c3c1CC(F)(F)[C@H]3O)CC[C@@H]2F` [Example 178, (5S,8R)-8-[(1S)-7-(5-aminopyridazin-4-yl)-2,2-difluoro-1-hydroxy-1,3-dihydroinden-4-yl]-3,5-difluoro-5,6,7,8-tetrahydronaphthalene-1-carbonitrile] gave an IC50 of 0.1 to 1 µM.

`Cn1nccc1-c1ccc([C@H]2C[C@H](F)[C@H](F)c3cc(F)cc(C#N)c32)c2c1[C@H](O)C(F)(F)C2` [Example 217, (5R,6S,8R)-8-[(1S)-2,2-difluoro-1-hydroxy-7-(1-methyl-1H-pyrazol-5-yl)-2,3-dihydro-1H-inden-4-yl]-3,5,6-trifluoro-5,6,7,8-tetrahydronaphthalene-1-carbonitrile] gave an IC50 of under 0.1 µM.

`Cn1nncc1-c1ccc([C@H]2CC[C@H](F)c3cc(F)cc(C#N)c32)c2c1[C@H](O)[C@H](F)C2` [Example 175, (5S,8R)-3,5-difluoro-8-[(1S,2R)-2-fluoro-1-hydroxy-7-(3-methyltriazol-4-yl)-2,3-dihydro-1H-inden-4-yl]-5,6,7,8-tetrahydronaphthalene-1-carbonitrile] gave an IC50 of under 0.1 µM.

`Cc1nc(N)ncc1-c1ccc([C@H]2CC[C@H](F)c3cc(F)cc(C#N)c32)c2c1[C@H](O)C(F)(F)C2` [Example 168, (5S,8R)-8-[(1S)-7-(2-amino-4-methylpyrimidin-5-yl)-2,2-difluoro-1-hydroxy-1,3-dihydroinden-4-yl]-3,5-difluoro-5,6,7,8-tetrahydronaphthalene-1-carbonitrile] showed an IC50 of under 0.1 µM.

`Cc1nc(N)ccc1-c1c(F)cc([C@H]2CC[C@H](F)c3cc(F)cc(C#N)c32)c2c1[C@H](O)C(F)(F)C2` [Example 203, (5S,8R)-8-[(1S)-7-(6-amino-2-methylpyridin-3-yl)-2,2,6-trifluoro-1-hydroxy-1,3-dihydroinden-4-yl]-3,5-difluoro-5,6,7,8-tetrahydronaphthalene-1-carbonitrile] showed an IC50 of under 0.1 µM.

`N#Cc1cc(F)cc2c1[C@@H](c1ccc(-c3cnc4ccccn34)c3c1CC(F)(F)[C@H]3O)CC[C@@H]2F` [Example 239, (5S,8R)-8-[(1S)-2,2-difluoro-1-hydroxy-7-imidazo[1,2-a]pyridin-3-yl-1,3-dihydroinden-4-yl]-3,5-difluoro-5,6,7,8-tetrahydronaphthalene-1-carbonitrile] showed an IC50 of under 0.1 µM.

Molecule `N#Cc1cc(F)cc2c1[C@@H](c1ccc(-c3nccnc3N)c3c1CC(F)(F)[C@H]3O)CC[C@@H]2F` [Example 186, (5S,8R)-8-[(1S)-7-(3-aminopyrazin-2-yl)-2,2-difluoro-1-hydroxy-1,3-dihydroinden-4-yl]-3,5-difluoro-5,6,7,8-tetrahydronaphthalene-1-carbonitrile] has an IC50 of under 0.1 µM.

For `Cn1c(-c2ccc([C@H]3CC[C@H](F)c4cc(F)cc(C#N)c43)c3c2[C@H](O)C(F)(F)C3)cccc1=O` [Example 171, (5S,8R)-8-[(1S)-2,2-difluoro-1-hydroxy-7-(1-methyl-6-oxopyridin-2-yl)-1,3-dihydroinden-4-yl]-3,5-difluoro-5,6,7,8-tetrahydronaphthalene-1-carbonitrile], the IC50 was under 0.1 µM.

Molecule `CS(=O)(=O)c1ccc([C@H]2CC[C@H](F)c3cc(F)cc(C#N)c32)c2c1[C@H](O)[C@](F)(C#N)C2` [Example 248, (5S,8R)-8-[(1S,2R)-2-cyano-2-fluoro-1-hydroxy-7-methylsulfonyl-1,3-dihydroinden-4-yl]-3,5-difluoro-5,6,7,8-tetrahydronaphthalene-1-carbonitrile] has an IC50 of 0.1 to 1 µM.

`Cc1scnc1-c1ccc([C@H]2CC[C@H](F)c3cc(F)cc(C#N)c32)c2c1[C@H](O)C(F)(F)C2` [Example 192, (5S,8R)-8-[(1S)-2,2-difluoro-1-hydroxy-7-(5-methyl-1,3-thiazol-4-yl)-1,3-dihydroinden-4-yl]-3,5-difluoro-5,6,7,8-tetrahydronaphthalene-1-carbonitrile] gave an IC50 of under 0.1 µM.
